# In patent US10081624B2, “Heterocyclic compound” (Takeda Pharmaceutical Company Limited, priority 2014, dated 2018):
# Biological target: T1, HDAC6 enzyme (Homo sapiens, UniProt Q9UBN7)
# T1 construct: prepared by transducing full length HDAC1 and HDAC6 genes into Sf-9 insect cells; GST; purchased SignalChem; host or cells: Sf-9 insect cells
# T1 sequence (Q9UBN7 1-1215): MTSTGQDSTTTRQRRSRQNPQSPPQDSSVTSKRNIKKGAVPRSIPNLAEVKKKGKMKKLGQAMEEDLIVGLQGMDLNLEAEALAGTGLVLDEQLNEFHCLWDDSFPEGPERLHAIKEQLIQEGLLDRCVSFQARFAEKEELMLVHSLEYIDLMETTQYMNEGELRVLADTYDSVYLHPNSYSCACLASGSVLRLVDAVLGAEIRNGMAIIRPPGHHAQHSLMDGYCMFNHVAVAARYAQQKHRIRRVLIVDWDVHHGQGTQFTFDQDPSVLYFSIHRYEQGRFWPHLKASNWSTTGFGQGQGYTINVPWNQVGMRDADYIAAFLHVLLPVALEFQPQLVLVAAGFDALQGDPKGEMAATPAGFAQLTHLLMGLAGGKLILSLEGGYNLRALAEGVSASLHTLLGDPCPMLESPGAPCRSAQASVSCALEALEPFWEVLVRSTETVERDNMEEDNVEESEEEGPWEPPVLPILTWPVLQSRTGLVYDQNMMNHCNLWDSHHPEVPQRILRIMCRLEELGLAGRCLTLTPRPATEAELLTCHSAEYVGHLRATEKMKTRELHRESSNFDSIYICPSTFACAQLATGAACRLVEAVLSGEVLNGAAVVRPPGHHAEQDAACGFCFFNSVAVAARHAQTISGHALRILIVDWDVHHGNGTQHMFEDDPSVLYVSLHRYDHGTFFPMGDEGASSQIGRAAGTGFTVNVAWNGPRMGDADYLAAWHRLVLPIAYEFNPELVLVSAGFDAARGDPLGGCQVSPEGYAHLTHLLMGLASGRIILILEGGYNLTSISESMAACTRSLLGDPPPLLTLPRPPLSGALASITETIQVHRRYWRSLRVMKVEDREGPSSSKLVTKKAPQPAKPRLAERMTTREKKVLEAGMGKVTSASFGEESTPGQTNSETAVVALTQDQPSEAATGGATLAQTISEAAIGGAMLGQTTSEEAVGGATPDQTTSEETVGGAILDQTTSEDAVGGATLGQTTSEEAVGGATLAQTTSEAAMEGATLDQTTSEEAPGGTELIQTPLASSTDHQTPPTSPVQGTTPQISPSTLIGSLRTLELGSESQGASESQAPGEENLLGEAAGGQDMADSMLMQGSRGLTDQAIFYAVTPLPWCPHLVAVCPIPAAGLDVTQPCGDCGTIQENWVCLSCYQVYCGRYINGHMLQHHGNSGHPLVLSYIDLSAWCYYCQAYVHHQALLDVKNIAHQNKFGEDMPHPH
# Test: HDAC6 enzyme inhibitory assay (HDAC-Glo I/II Assay kit)
# Type: biochemical
# Conditions: 1 μM test compound; read-out: HDAC6 inhibitory rate (%) (1 μM)
# Experimental: HDAC1 enzyme and HDAC6 enzyme each prepared by transducing full length HDAC1 and HDAC6 genes into Sf-9 insect cells and purifying by GST affinity column were purchased from SignalChem. Using these enzymes, HDAC1 and/or HDAC6 enzyme inhibitory activities of the compound of the present invention were evaluated. Enzymes were used after preserved at −70° C. HDAC1 or HDAC6 enzyme inhibitory activity of the compound of the present invention was measured using HDAC-Glo™ I/II Assay kit (Promega) according to the following experimental method. The test compound diluted with assay buffer (24 mM Tris-HCl (pH 7.5), 1 mM MgCl2, 0.35 mM KCl, 135 mM NaCl, 0.6 mM Glutathione, 0.01% Tween-20) was added to a 384-well plate by each 2 μL. Then, HDAC1 or HDAC6 enzyme solution diluted with assay buffer was added thereto by each 4 μL, and the plate was incubated at room temperature for 60 min. After incubated, HDAC substrate-Developer solution prepared according to Promega protocol attached to the assay kit was added to the 384-well plate by each 2 μL, and the enzyme reaction was started. After reacting at room temperature for 20 min, luminescence level was measured using plate reader Envision (PerkinElmer). The inhibitory activity of each compound was calculated as a relative activity value when luminescence level in wells without enzyme is considered as 100% inhibition.
row,SMILES,inhibition at 1 µM [%]
1,"Cc1ccc(C(=O)N2CCOC[C@@H]2CNC(=O)c2ccc(-c3noc(C(F)(F)F)n3)cc2)s1 [Example 72, N-(((3S)-4-((5-methyl-2-thienyl)carbonyl)morpholin-3-yl)methyl)-4-(5-(trifluoromethyl)-1,2,4-oxadiazol-3-yl)benzamide]",89
2,"O=C(NCC1COCCN1C(=O)Nc1ccccc1)c1ccc(-c2noc(C(F)(F)F)n2)cc1 (stereo not shown) [Example 2, N-phenyl-3-(((4-(5-(trifluoromethyl)-1,2,4-oxadiazol-3-yl)benzoyl)amino)methyl)morpholine-4-carboxamide]",86
3,"Cn1ccnc1C(=O)N1CCOCC1CNC(=O)c1ccc(-c2noc(C(F)(F)F)n2)cc1 (stereo not shown) [Example 16, N-((4-((1-methyl-1H-imidazol-2-yl)carbonyl)morpholin-3-yl)methyl)-4-(5-(trifluoromethyl)-1,2,4-oxadiazol-3-yl)benzamide]",93
4,"O=C(NC[C@H]1COCCN1C(=O)c1cc2ccccc2o1)c1ccc(-c2noc(C(F)(F)F)n2)cc1 [Example 53, N-(((3S)-4-(1-benzofuran-2-ylcarbonyl)morpholin-3-yl)methyl)-4-(5-(trifluoromethyl)-1,2,4-oxadiazol-3-yl)benzamide]",95
5,"O=C(NC[C@H]1COCCN1C(=O)c1cc2ncccn2n1)c1ccc(-c2noc(C(F)(F)F)n2)cc1 [Example 54, N-(((3S)-4-(pyrazolo[1,5-a]pyrimidin-2-ylcarbonyl)morpholin-3-yl)methyl)-4-(5-(trifluoromethyl)-1,2,4-oxadiazol-3-yl)benzamide]",95
6,"Cn1ccc(C(=O)N2CCOC[C@@H]2CNC(=O)c2ccc(-c3noc(C(F)(F)F)n3)cc2)n1 [Example 65, N-(((3S)-4-((1-methyl-1H-pyrazol-3-yl)carbonyl)morpholin-3-yl)methyl)-4-(5-(trifluoromethyl)-1,2,4-oxadiazol-3-yl)benzamide]",75
7,"O=C(NC[C@@H]1COCCN1C(=O)COc1ccccc1)c1ccc(-c2noc(C(F)(F)F)n2)cc1 [Example 130, N-(((3R)-4-(phenoxyacetyl)morpholin-3-yl)methyl)-4-(5-(trifluoromethyl)-1,2,4-oxadiazol-3-yl)benzamide]",94
8,"COc1cccc(C(=O)N2CCOCC2CNC(=O)c2ccc(-c3noc(C(F)(F)F)n3)cc2)c1 (stereo in doubt) [Example 114, N-(((3R)-4-(3-methoxybenzoyl)morpholin-3-yl)methyl)-4-(5-(trifluoromethyl)-1,2,4-oxadiazol-3-yl)benzamide]",92
9,"Cc1cc(C(=O)N2CCOC[C@@H]2CNC(=O)c2ccc(-c3noc(C(F)(F)F)n3)cc2)cc(O)n1 [Example 50, N-(((3S)-4-(2-hydroxy-6-methylisonicotinoyl)morpholin-3-yl)methyl)-4-(5-(trifluoromethyl)-1,2,4-oxadiazol-3-yl)benzamide]",95

# Now from value to compound:
row,inhibition at 1 µM [%],SMILES
1,95,"N#Cc1cc(F)cc(C(=O)N2CCOC[C@@H]2CNC(=O)c2ccc(-c3noc(C(F)(F)F)n3)cn2)c1 [Example 189, N-(((3S)-4-(3-cyano-5-fluorobenzoyl)morpholin-3-yl)methyl)-5-(5-(trifluoromethyl)-1,2,4-oxadiazol-3-yl)pyridine-2-carboxamide]"
2,99,"O=C(NC[C@H]1COCCN1C(=O)c1cc(F)cc(F)c1)c1ccc(-c2noc(C(F)(F)F)n2)cn1 [Example 186, N-(((3S)-4-(3,5-difluorobenzoyl)morpholin-3-yl)methyl)-5-(5-(trifluoromethyl)-1,2,4-oxadiazol-3-yl)pyridine-2-carboxamide]"
3,96,"O=C(NCC1COCCN1C(=O)c1ccccc1Cl)c1ccc(-c2noc(C(F)(F)F)n2)s1 (stereo not shown) [Example 214, N-((4-(2-chlorobenzoyl)morpholin-3-yl)methyl)-5-(5-(trifluoromethyl)-1,2,4-oxadiazol-3-yl)thiophene-2-carboxamide]"
4,94,"Cn1nccc1C(=O)N1CCOC[C@@H]1CNC(=O)c1ccc(-c2noc(C(F)(F)F)n2)cn1 [Example 192, N-(((3S)-4-((1-methyl-1H-pyrazol-5-yl)carbonyl)morpholin-3-yl)methyl)-5-(5-(trifluoromethyl)-1,2,4-oxadiazol-3-yl)pyridine-2-carboxamide]"
5,93,"O=C(NCC1COCCN1C(=O)c1ccc(-c2ccccc2)cc1)c1ccc(-c2noc(C(F)(F)F)n2)s1 (stereo not shown) [Example 223, N-((4-(biphenyl-4-ylcarbonyl)morpholin-3-yl)methyl)-5-(5-(trifluoromethyl)-1,2,4-oxadiazol-3-yl)thiophene-2-carboxamide]"
6,70,"O=C(NCC1Cc2ccccc2N1C(=O)c1cc(Cl)cc(Cl)c1)c1ccc(-c2noc(C(F)(F)F)n2)cc1 (stereo not shown) [Example 168, N-((1-(3,5-dichlorobenzoyl)-2,3-dihydro-1H-indol-2-yl)methyl)-4-(5-(trifluoromethyl)-1,2,4-oxadiazol-3-yl)benzamide]"
7,52,"O=C(NCC1COCCN1C(=O)c1ccccc1)c1cc(-c2noc(C(F)(F)F)n2)cs1 (stereo not shown) [Example 267, N-((4-benzoylmorpholin-3-yl)methyl)-4-(5-(trifluoromethyl)-1,2,4-oxadiazol-3-yl)thiophene-2-carboxamide]"
8,94,"Cc1ccsc1C(=O)N1CCOC[C@H]1CNC(=O)c1ccc(-c2noc(C(F)(F)F)n2)cc1 [Example 146, N-(((3R)-4-((3-methyl-2-thienyl)carbonyl)morpholin-3-yl)methyl)-4-(5-(trifluoromethyl)-1,2,4-oxadiazol-3-yl)benzamide]"
9,77,"Cn1ccnc1C(=O)N1CCOCC1CNC(=O)c1ccc(-c2noc(C(F)(F)F)n2)s1 (stereo not shown) [Example 228, N-((4-((1-methyl-1H-imidazol-2-yl)carbonyl)morpholin-3-yl)methyl)-5-(5-(trifluoromethyl)-1,2,4-oxadiazol-3-yl)thiophene-2-carboxamide]"
10,95,"N#Cc1cccc(C(=O)N2CCOC[C@@H]2CNC(=O)c2ccc(-c3noc(C(F)(F)F)n3)cn2)c1 [Example 188, N-(((3S)-4-(3-cyanobenzoyl)morpholin-3-yl)methyl)-5-(5-(trifluoromethyl)-1,2,4-oxadiazol-3-yl)pyridine-2-carboxamide]"
11,88,"Cc1cc(C(=O)N2CCOCC2CNC(=O)c2ccc(-c3noc(C(F)(F)F)n3)s2)n(C)n1 (stereo not shown) [Example 230, N-((4-((1,3-dimethyl-1H-pyrazol-5-yl)carbonyl)morpholin-3-yl)methyl)-5-(5-(trifluoromethyl)-1,2,4-oxadiazol-3-yl)thiophene-2-carboxamide]"
12,89,"Cc1ncsc1C(=O)N1CCOC[C@H]1CNC(=O)c1ccc(-c2noc(C(F)(F)F)n2)cc1 [Example 141, N-(((3R)-4-((4-methyl-1,3-thiazol-5-yl)carbonyl)morpholin-3-yl)methyl)-4-(5-(trifluoromethyl)-1,2,4-oxadiazol-3-yl)benzamide]"
13,89,"Cc1ccc(C(=O)N2CCOCC2CNC(=O)c2ccc(-c3noc(C(F)(F)F)n3)s2)s1 (stereo not shown) [Example 242, N-((4-((5-methyl-2-thienyl)carbonyl)morpholin-3-yl)methyl)-5-(5-(trifluoromethyl)-1,2,4-oxadiazol-3-yl)thiophene-2-carboxamide]"
